Like-named read-outs stand apart in the source and are kept apart here.

We go through nine compounds from patent US20030087799A1, “Modulation” (priority 2001, published 2003).

One experiment has as its system GABAA receptor. The experiment is described as follows: GABAA receptor mediated chloride currents evoked on cultured neurones. Type of experiment: cell-based.
Experiment [1] relates to K-ATP channels in DA neurones. The experiment is described as follows: K-ATP channel mediated response of DA neurones to mitochondrial inhibitors. As to conditions: read-out: EC50 of K-ATP channel sensitivity. It is filed as cell-based, mouse.
The test system of experiment [2] is Ih channels in DA SN neurones. The experiment is described as follows: Pacemaker frequency of DA SN neurones under selective Ih inhibition. It is filed as cell-based. As to conditions: 30 μM ZD7288.
Experiment [3] relates to SK mediated AHP currents (I-AHP) in dopaminergic neurons. As to the kind of experiment: cells. It is filed as cell-based, mouse. Conditions: for IC50: read-out: IC50 of I-AHP inhibition (Hill function).
The subject of another experiment is globus pallidus neurones. The experiment is described as follows: Electrical activity of globus pallidus neurones in brain slices. Type of experiment: cell-based, mouse.
In experiment [4] the test system is T-type calcium channels (low voltage-activated calcium currents). Type of experiment: cell-based, mouse. Conditions: read-out: IC50 of I-LVA inhibition (Hill function).
For experiment [5], the system named is dopaminergic neurons.
The test system of experiment [6] is dopaminergic neurons. Type of experiment: cell-based, mouse.
The test system of experiment [7] is dopaminergic midbrain neurons. It is filed as cell-based, mouse.

As for `[H]/N=C(/N)NCC(=O)O` [GAA, guanidinoacetate], the EC50 (commonly the concentration that produces a half-maximal response) in the experiment with GABAA receptor was determined as 164 µM.

Consider `C[n+]1ccc(-c2ccccc2)cc1` [MPP^+], for which the EC50 in experiment [1] (MPP+) was about 2 µM.

As to `CCN(c1ccccc1)c1cc(=NC)n(C)c(C)n1.Cl` [ZD7288], the “decrease of pacemaker frequency” value in experiment [2] is “about 50%”.

For `[Co+2]` [cobalt], the “I-AHP residual current (cobalt block)” value in experiment [3] (1 mM cobalt, n=29) came out at 29±4%.

For the compound `CN(CC(=O)O)C(=N)N` [creatine], the “effect on neuronal activity” value in the experiment on globus pallidus neurones (millimolar concentrations) is given as “no effect”.

Take `COCC(=O)O[C@]1(CCN(C)CCCc2nc3ccccc3[nH]2)CCc2cc(F)ccc2[C@@H]1C(C)C` [mibefradil, Mibefradil]: the IC50 (in general, the concentration that inhibits the measured activity by half) in experiment [4] (depolarizations to −50 mV from holding potential −100 mV) came to 4.6 µM; in experiment [3] (Mus musculus, Neuron, mean dose-response, recording potential −60 mV) it was 5.9 µM. The “inhibition of cobalt-sensitive I-AHP” value in [3] (mibefradil, concentration not given, normalized to mean value of cobalt block, n=6) turned out to be 94±10%.

On to `[Ni+2]` [nickel], for which the IC50 in [4] came to 33.9 µM. In the experiment on dopaminergic neurons [5], the “fold reduction of AHPs with successive action potentials (cumulative inactivation)” value stood at 1.1±0.1. Also, in experiment [3], the “inhibition of cobalt-sensitive I-AHP” value stood at 85±9% and the IC50 was determined as 33.8 µM. Moreover, in the experiment on dopaminergic neurons [6], the “coefficient of variation (CV) of interspike intervals, representative recording” value is recorded as 38% and the “mean CV of interspike intervals” value is 27±5%. Also, in experiment [7], the “bursting value (action potentials in bursts / total)” value was 12±6%.

In the case of `C=C(C)[C@H]1Cc2c(ccc3c2O[C@@H]2COc4cc(OC)c(OC)cc4[C@@H]2C3=O)O1` [rotenone], the EC50 in experiment [1] (rotenone) is about 0.015 µM.

In the case of picrotoxin, in the experiment with globus pallidus neurones (GABAA receptor antagonists), the “effect on GAA-induced effects” value is on record as “blocked”.
